Experiments:
Assay in all cases: KINOMEscan competition binding
Conditions in all cases: compound 10.0 µM
CAMKK1 (human) = CAMKK1 (human) (UniProt Q8N5S9)
CDC42BPB (human) = CDC42BPB (human) (UniProt Q9Y5S2)
CDK11B (human) = CDK11B (human) (UniProt P21127)
CDK15 (human) = CDK15 (human) (UniProt Q96Q40)
CDK16 (human) = CDK16 (human) (UniProt Q00536)
CDK18 (human) = CDK18 (human) (UniProt Q07002)
CDK8 (human) = CDK8 (human) (UniProt P49336)
CDKL2 (human) = CDKL2 (human) (UniProt Q92772)
CHUK (human) = CHUK (human) (UniProt O15111)
CLK4 (human) = CLK4 (human) (UniProt Q9HAZ1)
CSNK1D (human) = CSNK1D (human) (UniProt P48730)
DAPK3 (human) = DAPK3 (human) (UniProt O43293)
EPHA1 (human) = EPHA1 (human) (UniProt P21709)
[1] = system: FLT3 (human), P36888 [N841I]
GSK3B (human) = GSK3B (human) (UniProt P49841)
IRAK3 (human) = IRAK3 (human) (UniProt Q9Y616)
LIMK1 (human) = LIMK1 (human) (UniProt P53667)
MAP3K4 (human) = MAP3K4 (human) (UniProt Q9Y6R4)
MAPK11 (human) = MAPK11 (human) (UniProt Q15759)
MAPKAPK2 (human) = MAPKAPK2 (human) (UniProt P49137)
MERTK (human) = MERTK (human) (UniProt Q12866)
MKNK1 (human) = MKNK1 (human) (UniProt Q9BUB5)
PAK1 (human) = PAK1 (human) (UniProt Q13153)
PDGFRA (human) = PDGFRA (human) (UniProt P16234)
PIK3CD (human) = PIK3CD (human) (UniProt O00329)
PIM1 (human) = PIM1 (human) (UniProt P11309)
PRKD2 (human) = PRKD2 (human) (UniProt Q9BZL6)
PRKX (human) = PRKX (human) (UniProt P51817)
RAF1 (human) = RAF1 (human) (UniProt P04049)
RET (human) = RET (human) (UniProt P07949)
RIOK1 (human) = RIOK1 (human) (UniProt Q9BRS2)
RPS6KA2 KD1 (human) = RPS6KA2 KD1 (human) (UniProt Q15349)
SRC (human) = SRC (human) (UniProt P12931)
STK10 (human) = STK10 (human) (UniProt O94804)
STK3 (human) = STK3 (human) (UniProt Q13188)
STK33 (human) = STK33 (human) (UniProt Q9BYT3)
STK35 (human) = STK35 (human) (UniProt Q8TDR2)
STK4 (human) = STK4 (human) (UniProt Q13043)
SYK (human) = SYK (human) (UniProt P43405)
TYRO3 (human) = TYRO3 (human) (UniProt Q06418)

Chain of CDC42BPB (human) (Q9Y5S2 whole entry, looked up): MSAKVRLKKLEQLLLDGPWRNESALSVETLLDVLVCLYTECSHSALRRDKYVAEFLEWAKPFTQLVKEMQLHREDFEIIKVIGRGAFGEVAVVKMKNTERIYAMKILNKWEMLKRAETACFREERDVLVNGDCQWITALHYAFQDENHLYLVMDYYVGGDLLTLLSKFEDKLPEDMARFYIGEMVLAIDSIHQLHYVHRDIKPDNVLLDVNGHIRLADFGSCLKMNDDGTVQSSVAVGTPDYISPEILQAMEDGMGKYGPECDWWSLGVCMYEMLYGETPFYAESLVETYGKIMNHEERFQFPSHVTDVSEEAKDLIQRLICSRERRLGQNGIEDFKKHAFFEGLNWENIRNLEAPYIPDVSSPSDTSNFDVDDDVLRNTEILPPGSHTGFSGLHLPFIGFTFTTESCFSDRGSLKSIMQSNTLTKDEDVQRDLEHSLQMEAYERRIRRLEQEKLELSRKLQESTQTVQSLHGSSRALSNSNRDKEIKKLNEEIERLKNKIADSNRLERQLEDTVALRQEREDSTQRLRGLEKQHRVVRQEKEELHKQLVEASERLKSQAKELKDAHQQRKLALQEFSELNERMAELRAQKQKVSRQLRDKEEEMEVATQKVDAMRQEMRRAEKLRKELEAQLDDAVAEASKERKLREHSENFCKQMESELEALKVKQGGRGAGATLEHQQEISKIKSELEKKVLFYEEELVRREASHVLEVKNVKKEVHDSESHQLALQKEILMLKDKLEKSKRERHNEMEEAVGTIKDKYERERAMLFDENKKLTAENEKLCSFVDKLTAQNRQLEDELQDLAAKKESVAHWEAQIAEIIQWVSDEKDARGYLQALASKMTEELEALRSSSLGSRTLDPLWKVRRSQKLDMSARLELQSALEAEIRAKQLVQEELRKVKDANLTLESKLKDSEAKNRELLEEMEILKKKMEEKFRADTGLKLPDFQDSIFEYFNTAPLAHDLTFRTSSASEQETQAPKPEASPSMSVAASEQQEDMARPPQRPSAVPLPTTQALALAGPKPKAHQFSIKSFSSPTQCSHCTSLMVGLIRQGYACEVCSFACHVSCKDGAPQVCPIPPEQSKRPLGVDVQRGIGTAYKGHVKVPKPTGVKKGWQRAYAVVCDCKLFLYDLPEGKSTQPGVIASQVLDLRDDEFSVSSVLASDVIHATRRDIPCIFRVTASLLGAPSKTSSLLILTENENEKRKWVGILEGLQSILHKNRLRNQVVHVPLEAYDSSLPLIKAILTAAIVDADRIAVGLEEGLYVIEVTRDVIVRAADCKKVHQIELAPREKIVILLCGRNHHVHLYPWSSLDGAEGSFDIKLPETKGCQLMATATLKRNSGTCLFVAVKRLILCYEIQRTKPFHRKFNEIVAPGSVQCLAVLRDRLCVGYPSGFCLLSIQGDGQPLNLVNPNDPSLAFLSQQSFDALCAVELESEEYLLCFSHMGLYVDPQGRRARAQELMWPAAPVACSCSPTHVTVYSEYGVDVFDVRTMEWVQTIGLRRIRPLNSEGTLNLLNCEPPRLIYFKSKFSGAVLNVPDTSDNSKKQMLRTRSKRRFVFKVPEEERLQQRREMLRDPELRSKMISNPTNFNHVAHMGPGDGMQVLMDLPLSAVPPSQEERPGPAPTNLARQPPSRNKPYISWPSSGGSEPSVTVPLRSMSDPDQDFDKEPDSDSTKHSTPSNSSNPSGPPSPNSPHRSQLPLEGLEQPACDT
Chain of EPHA1 (human) (P21709 whole entry, looked up): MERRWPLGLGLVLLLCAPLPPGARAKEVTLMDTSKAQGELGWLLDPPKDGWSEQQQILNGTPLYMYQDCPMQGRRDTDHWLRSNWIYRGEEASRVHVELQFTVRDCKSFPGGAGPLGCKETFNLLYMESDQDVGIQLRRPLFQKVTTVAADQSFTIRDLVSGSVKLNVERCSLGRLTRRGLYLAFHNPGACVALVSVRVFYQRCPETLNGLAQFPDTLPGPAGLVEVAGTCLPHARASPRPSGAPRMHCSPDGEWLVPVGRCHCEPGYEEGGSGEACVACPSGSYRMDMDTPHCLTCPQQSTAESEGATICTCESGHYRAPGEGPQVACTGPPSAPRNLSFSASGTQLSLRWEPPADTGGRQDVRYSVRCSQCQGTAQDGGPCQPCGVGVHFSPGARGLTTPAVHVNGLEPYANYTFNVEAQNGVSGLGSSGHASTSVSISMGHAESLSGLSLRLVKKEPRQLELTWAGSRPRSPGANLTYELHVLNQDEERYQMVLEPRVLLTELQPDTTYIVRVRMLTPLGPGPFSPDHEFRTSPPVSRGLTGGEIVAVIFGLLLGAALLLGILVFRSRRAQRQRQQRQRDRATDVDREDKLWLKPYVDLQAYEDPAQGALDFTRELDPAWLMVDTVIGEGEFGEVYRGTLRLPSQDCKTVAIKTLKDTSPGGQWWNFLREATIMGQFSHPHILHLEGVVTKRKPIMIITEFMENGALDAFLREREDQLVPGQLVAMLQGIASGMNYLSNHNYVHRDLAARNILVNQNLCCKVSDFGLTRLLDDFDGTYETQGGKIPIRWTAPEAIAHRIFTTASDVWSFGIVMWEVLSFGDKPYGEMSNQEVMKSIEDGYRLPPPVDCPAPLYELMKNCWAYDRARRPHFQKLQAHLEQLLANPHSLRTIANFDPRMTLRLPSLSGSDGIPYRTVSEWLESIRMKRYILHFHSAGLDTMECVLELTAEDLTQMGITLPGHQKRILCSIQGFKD
Chain of PAK1 (human) (Q13153 whole entry, looked up): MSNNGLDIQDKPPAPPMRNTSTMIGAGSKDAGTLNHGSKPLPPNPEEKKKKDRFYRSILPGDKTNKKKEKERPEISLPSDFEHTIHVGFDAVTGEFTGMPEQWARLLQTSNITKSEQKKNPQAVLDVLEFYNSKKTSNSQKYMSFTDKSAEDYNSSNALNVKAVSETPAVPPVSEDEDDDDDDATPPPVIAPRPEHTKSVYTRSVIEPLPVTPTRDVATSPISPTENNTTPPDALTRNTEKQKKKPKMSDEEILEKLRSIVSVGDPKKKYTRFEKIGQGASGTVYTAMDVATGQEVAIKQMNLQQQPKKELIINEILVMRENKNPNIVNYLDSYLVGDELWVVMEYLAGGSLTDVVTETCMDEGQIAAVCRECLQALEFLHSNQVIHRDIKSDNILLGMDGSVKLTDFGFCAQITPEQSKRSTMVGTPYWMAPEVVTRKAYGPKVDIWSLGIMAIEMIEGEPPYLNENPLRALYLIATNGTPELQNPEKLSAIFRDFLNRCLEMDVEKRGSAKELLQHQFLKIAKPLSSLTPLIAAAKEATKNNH
Chain of STK35 (human) (Q8TDR2 whole entry, looked up): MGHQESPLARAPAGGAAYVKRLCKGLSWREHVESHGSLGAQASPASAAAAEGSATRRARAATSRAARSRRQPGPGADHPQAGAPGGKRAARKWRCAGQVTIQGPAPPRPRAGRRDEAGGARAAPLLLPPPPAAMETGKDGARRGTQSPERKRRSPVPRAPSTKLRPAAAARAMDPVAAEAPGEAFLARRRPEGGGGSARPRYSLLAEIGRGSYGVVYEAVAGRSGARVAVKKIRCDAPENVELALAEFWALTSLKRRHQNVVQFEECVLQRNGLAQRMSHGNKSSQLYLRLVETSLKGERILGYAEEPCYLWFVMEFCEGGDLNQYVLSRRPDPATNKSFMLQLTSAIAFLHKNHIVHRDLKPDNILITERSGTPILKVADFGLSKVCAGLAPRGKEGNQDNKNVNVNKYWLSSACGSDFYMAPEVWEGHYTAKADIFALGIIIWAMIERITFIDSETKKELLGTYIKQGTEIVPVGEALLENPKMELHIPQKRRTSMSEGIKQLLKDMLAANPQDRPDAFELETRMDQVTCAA
Chain of MAPK11 (human) (Q15759 whole entry, looked up): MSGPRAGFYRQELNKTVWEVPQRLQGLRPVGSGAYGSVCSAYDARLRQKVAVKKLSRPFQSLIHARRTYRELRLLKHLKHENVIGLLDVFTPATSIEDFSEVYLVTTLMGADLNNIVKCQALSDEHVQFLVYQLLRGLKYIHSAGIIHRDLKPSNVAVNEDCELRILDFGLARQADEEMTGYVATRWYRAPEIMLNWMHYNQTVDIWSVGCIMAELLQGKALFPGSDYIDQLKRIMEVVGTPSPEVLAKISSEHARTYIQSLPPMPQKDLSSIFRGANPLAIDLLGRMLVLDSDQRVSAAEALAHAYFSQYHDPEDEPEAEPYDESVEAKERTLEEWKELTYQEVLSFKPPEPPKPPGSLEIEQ
Chain of CDK11B (human) (P21127 whole entry, looked up): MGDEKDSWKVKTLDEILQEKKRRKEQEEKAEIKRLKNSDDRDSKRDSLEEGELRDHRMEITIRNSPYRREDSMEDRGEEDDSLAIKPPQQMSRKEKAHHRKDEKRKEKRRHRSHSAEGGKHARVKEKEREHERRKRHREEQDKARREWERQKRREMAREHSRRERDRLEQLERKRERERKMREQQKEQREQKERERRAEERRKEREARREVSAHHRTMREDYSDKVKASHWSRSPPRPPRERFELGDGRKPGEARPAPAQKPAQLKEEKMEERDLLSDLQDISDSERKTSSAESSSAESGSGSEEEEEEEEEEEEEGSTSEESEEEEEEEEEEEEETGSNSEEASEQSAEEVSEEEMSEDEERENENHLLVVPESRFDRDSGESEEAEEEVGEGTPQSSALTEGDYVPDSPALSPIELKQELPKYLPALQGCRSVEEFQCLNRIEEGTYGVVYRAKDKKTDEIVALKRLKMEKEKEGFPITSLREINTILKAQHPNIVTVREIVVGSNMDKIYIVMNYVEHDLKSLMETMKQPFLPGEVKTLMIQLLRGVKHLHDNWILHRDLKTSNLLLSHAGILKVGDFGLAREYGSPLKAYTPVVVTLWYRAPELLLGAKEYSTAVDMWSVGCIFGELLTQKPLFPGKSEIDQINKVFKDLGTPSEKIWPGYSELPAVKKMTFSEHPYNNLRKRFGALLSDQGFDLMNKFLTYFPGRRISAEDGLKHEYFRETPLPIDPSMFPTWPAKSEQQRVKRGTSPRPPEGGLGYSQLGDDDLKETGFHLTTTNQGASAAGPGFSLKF

SMILES	kinase still bound, per cent of control (CAMKK1 (human))	kinase still bound, per cent of control (CDC42BPB (human))	kinase still bound, per cent of control (CDK11B (human))	kinase still bound, per cent of control (CDK15 (human))	kinase still bound, per cent of control (CDK16 (human))	kinase still bound, per cent of control (CDK18 (human))	kinase still bound, per cent of control (CDK8 (human))	kinase still bound, per cent of control (CDKL2 (human))	kinase still bound, per cent of control (CHUK (human))	kinase still bound, per cent of control (CLK4 (human))	kinase still bound, per cent of control (CSNK1D (human))	kinase still bound, per cent of control (DAPK3 (human))	kinase still bound, per cent of control (EPHA1 (human))	kinase still bound, per cent of control [1]	kinase still bound, per cent of control (GSK3B (human))	kinase still bound, per cent of control (IRAK3 (human))	kinase still bound, per cent of control (LIMK1 (human))	kinase still bound, per cent of control (MAP3K4 (human))	kinase still bound, per cent of control (MAPK11 (human))	kinase still bound, per cent of control (MAPKAPK2 (human))	other results
COc1cc(C(=O)NC2CCN(C)CC2)ccc1Nc1ncc2c(n1)N(C1CCCC1)CCC(=O)N2C(C)C	100%	100%	100%	100%	100%	100%	100%	100%	100%	100%	100%	100%	100%	100%	100%	100%	100%	100%	100%	100%	kinase still bound, per cent of control (MERTK (human)): 34%; kinase still bound, per cent of control (MKNK1 (human)): 100%; kinase still bound, per cent of control (PAK1 (human)): 100%; kinase still bound, per cent of control (PDGFRA (human)): 100%; kinase still bound, per cent of control (PIK3CD (human)): 100%; kinase still bound, per cent of control (PIM1 (human)): 100%; kinase still bound, per cent of control (PRKD2 (human)): 100%; kinase still bound, per cent of control (PRKX (human)): 100%; kinase still bound, per cent of control (RAF1 (human)): 100%; kinase still bound, per cent of control (RET (human)): 100%; kinase still bound, per cent of control (RIOK1 (human)): 100%; kinase still bound, per cent of control (RPS6KA2 KD1 (human)): 100%; kinase still bound, per cent of control (SRC (human)): 100%; kinase still bound, per cent of control (STK10 (human)): 100%; kinase still bound, per cent of control (STK3 (human)): 100%; kinase still bound, per cent of control (STK33 (human)): 32%; kinase still bound, per cent of control (STK35 (human)): 100%; kinase still bound, per cent of control (STK4 (human)): 100%; kinase still bound, per cent of control (SYK (human)): 100%; kinase still bound, per cent of control (TYRO3 (human)): 100%
C=CC(=O)Nc1cc(NC(=O)c2ccc(C)c(NC(=O)c3ccno3)c2)cc(C(F)(F)F)c1	96%	91%	86%	93%	95%	91%	100%	100%	100%	100%	100%	96%	99%	82%	100%	100%	100%	100%	4.8%	100%	kinase still bound, per cent of control (MERTK (human)): 99%; kinase still bound, per cent of control (MKNK1 (human)): 100%; kinase still bound, per cent of control (PAK1 (human)): 79%; kinase still bound, per cent of control (PDGFRA (human)): 41%; kinase still bound, per cent of control (PIK3CD (human)): 100%; kinase still bound, per cent of control (PIM1 (human)): 100%; kinase still bound, per cent of control (PRKD2 (human)): 100%; kinase still bound, per cent of control (PRKX (human)): 84%; kinase still bound, per cent of control (RAF1 (human)): 40%; kinase still bound, per cent of control (RET (human)): 96%; kinase still bound, per cent of control (RIOK1 (human)): 100%; kinase still bound, per cent of control (RPS6KA2 KD1 (human)): 100%; kinase still bound, per cent of control (SRC (human)): 49%; kinase still bound, per cent of control (STK10 (human)): 100%; kinase still bound, per cent of control (STK3 (human)): 100%; kinase still bound, per cent of control (STK33 (human)): 100%; kinase still bound, per cent of control (STK35 (human)): 100%; kinase still bound, per cent of control (STK4 (human)): 99%; kinase still bound, per cent of control (SYK (human)): 100%; kinase still bound, per cent of control (TYRO3 (human)): 93%

Source: the kinase profiling compilation of Christmann-Franck et al. (2016)
